Patent publication US12435044B2, “Pyridazinone herbicides and pyridazinone intermediates used to prepare a herbicide” (FMC Corporation, priority 2018, dated 2025)

Experiments:
Assay in all cases: Test I pre-/postemergence, mixtures of Cpd. No. 20 with saflufenacil or pyroxasulfone
Type in all cases: in vivo
[1] = system: soybean (GLXMA; Glycine max, cv. Pioneer 35T58); details: for Plant response rating (0 to 100 scale): Preemergence, GLXMA
Description: (§1) This test evaluated the effect of mixtures of Cpd. No. 20 with saflufenacil or pyroxasulfone on several plant species. Seeds of plant species selected from corn (ZEAMD; Zea mays, cv. ‘Pioneer 1184’), soybean (GLXMA; Glycine max, cv. Pioneer 35T58), giant foxtail (SETFA; Setaria faberi), palmer amaranth (AMAPA; Amaranthus palmeri), common waterhemp (AMATU; Amaranthus rudis), mare's tail (ERICA; Conyza canadensis), and common ragweed (AMBEL; Ambrosia artemisiifolia) were planted in pots containing Tama Silt Loam soil and treated preemergence with a directed soil spray using test chemicals formulated in a non-phytotoxic solvent mixture which included a surfactant.
(§2) At the same time, plants selected from these crop and weed species were planted in pots containing Redi-Earth® planting medium (Scotts Company, 14111 Scottslawn Road, Marysville, Ohio 43041) comprising spaghnum peat moss, vermiculite, wetting agent and starter nutrients and treated postemergence with test chemicals formulated in the same manner. Plants ranged in height from 2 to 10 cm and were in the one- to two-leaf stage for the postemergence treatment. Treated plants and untreated controls were maintained in a greenhouse for approximately 14-21 d, after which time all treated plants were compared to untreated controls and visually evaluated for injury. Plant response ratings, summarized in Tables 11 to 14, are based on a 0 to 100 scale where 0 is no effect and 100 is complete control. A dash (-) response means no test result. Test results are presented as a mean of 4 reps.

[2] = system: palmer amaranth (AMAPA; Amaranthus palmeri); details: for Plant response rating (0 to 100 scale): Preemergence, AMAPA
Description: as §1, §2

[3] = system: corn (ZEAMD; Zea mays, cv. ‘Pioneer 1184’); details: for Plant response rating (0 to 100 scale): Preemergence, ZEAMD
Description: as §1, §2

[4] = system: common ragweed (AMBEL; Ambrosia artemisiifolia); details: for Plant response rating (0 to 100 scale): Preemergence, AMBEL
Description: as §1, §2

[5] = system: common waterhemp (AMATU; Amaranthus rudis); details: for Plant response rating (0 to 100 scale): Preemergence, AMATU
Description: as §1, §2

[6] = system: giant foxtail (SETFA; Setaria faberi); details: for Plant response rating (0 to 100 scale): Preemergence, SETFA
Description: as §1, §2

[7] = system: mare's tail (ERICA; Conyza canadensis); details: for Plant response rating (0 to 100 scale): Preemergence, ERICA
Description: as §1, §2

SMILES	GLXMA plant response rating, 0 to 100 scale ([1]; postemergence, 4 g a.i./ha)	GLXMA plant response rating, 0 to 100 scale ([1]; postemergence, 8 g a.i./ha)	AMAPA plant response rating, 0 to 100 scale ([2]; postemergence, 4 g a.i./ha)	AMAPA plant response rating, 0 to 100 scale ([2]; postemergence, 8 g a.i./ha)	ZEAMD plant response rating, 0 to 100 scale ([3]; postemergence, 4 g a.i./ha)	ZEAMD plant response rating, 0 to 100 scale ([3]; postemergence, 8 g a.i./ha)	AMBEL plant response rating, 0 to 100 scale ([4]; postemergence, 4 g a.i./ha)	AMBEL plant response rating, 0 to 100 scale ([4]; postemergence, 8 g a.i./ha)	AMATU plant response rating, 0 to 100 scale ([5]; postemergence, 4 g a.i./ha)	AMATU plant response rating, 0 to 100 scale ([5]; postemergence, 8 g a.i./ha)	SETFA plant response rating, 0 to 100 scale ([6]; postemergence, 4 g a.i./ha)	SETFA plant response rating, 0 to 100 scale ([6]; postemergence, 8 g a.i./ha)	ERICA plant response rating, 0 to 100 scale ([7]; postemergence, 4 g a.i./ha)	ERICA plant response rating, 0 to 100 scale ([7]; postemergence, 8 g a.i./ha)	further results
CC(C)N(C)S(=O)(=O)NC(=O)c1cc(-n2c(=O)cc(C(F)(F)F)n(C)c2=O)c(F)cc1Cl [Saflufenacil, saflufenacil, reference compound]	74	91	84	70	15	70	100	100	85	90	23	55	95	100	Plant response rating (0 to 100 scale) ([1]; Saflufenacil 4 g a.i./ha alone): 0; Plant response rating (0 to 100 scale) ([1]; Saflufenacil 8 g a.i./ha alone): 0; Plant response rating (0 to 100 scale) ([2]; Saflufenacil 4 g a.i./ha alone): 35; Plant response rating (0 to 100 scale) ([2]; Saflufenacil 8 g a.i./ha alone): 88; Plant response rating (0 to 100 scale) ([3]; Saflufenacil 4 g a.i./ha alone): 0; Plant response rating (0 to 100 scale) ([3]; Saflufenacil 8 g a.i./ha alone): 0; Plant response rating (0 to 100 scale) ([4]; Saflufenacil 4 g a.i./ha alone): 96; Plant response rating (0 to 100 scale) ([4]; Saflufenacil 8 g a.i./ha alone): 100; Plant response rating (0 to 100 scale) ([5]; Saflufenacil 4 g a.i./ha alone): 55; Plant response rating (0 to 100 scale) ([5]; Saflufenacil 8 g a.i./ha alone): 84; Plant response rating (0 to 100 scale) ([6]; Saflufenacil 4 g a.i./ha alone): 0; Plant response rating (0 to 100 scale) ([6]; Saflufenacil 8 g a.i./ha alone): 0; Plant response rating (0 to 100 scale) ([7]; Saflufenacil 4 g a.i./ha alone): 94; Plant response rating (0 to 100 scale) ([7]; Saflufenacil 8 g a.i./ha alone): 100
Cn1nc(C(F)(F)F)c(CS(=O)(=O)C2=NOC(C)(C)C2)c1OC(F)F [Pyroxasulfone, pyroxasulfone, reference compound]	0	15	15	0	0	0	0	24	0	0	0	6	0	0	GLXMA plant response rating, 0 to 100 scale ([1]; preemergence, 4 g a.i./ha): 0; GLXMA plant response rating, 0 to 100 scale ([1]; preemergence, 8 g a.i./ha): 0; AMAPA plant response rating, 0 to 100 scale ([2]; preemergence, 4 g a.i./ha): 0; AMAPA plant response rating, 0 to 100 scale ([2]; preemergence, 8 g a.i./ha): 38; ZEAMD plant response rating, 0 to 100 scale ([3]; preemergence, 4 g a.i./ha): 0; ZEAMD plant response rating, 0 to 100 scale ([3]; preemergence, 8 g a.i./ha): 0; AMBEL plant response rating, 0 to 100 scale ([4]; preemergence, 4 g a.i./ha): 0; AMBEL plant response rating, 0 to 100 scale ([4]; preemergence, 8 g a.i./ha): 0; AMATU plant response rating, 0 to 100 scale ([5]; preemergence, 4 g a.i./ha): 5; AMATU plant response rating, 0 to 100 scale ([5]; preemergence, 8 g a.i./ha): 45; SETFA plant response rating, 0 to 100 scale ([6]; preemergence, 4 g a.i./ha): 76; SETFA plant response rating, 0 to 100 scale ([6]; preemergence, 8 g a.i./ha): 98; ERICA plant response rating, 0 to 100 scale ([7]; preemergence, 4 g a.i./ha): 79; ERICA plant response rating, 0 to 100 scale ([7]; preemergence, 8 g a.i./ha): 100
